Experiments:
Assay type in all cases: in vivo
[1] = tested on: Ceratitis capitata flies; assay: Insecticidal action in the dark: fly survival after porphyrin bait; details: for mortality of the flies in the dark: C. capitata, even at the largest porphyrin dose (8.1 μM); for Survival (% of control untreated flies): dark, fed 24 h, survival 12 h after change to porphyrin-free bait
Description: For comparison, data obtained with two conventional porphyrins (as those described in WO 97/29637) offered to the insects for 24 h at a 3.0 and 8.1 μmolar concentration in the same bait are also shown. In all cases, the survival was determined 12 hours after changing food supply from a porphyrin-containing to a porphyrin-free bait. […] These flies were then used in the various experimental sessions. […] The number of survivors was evaluated 12 h after switching from administration of a porphyrin-containing bait to a porphyrin-free bait. In none of the experiments was mortality or any apparent toxic effect observed in control flies (flies not fed with porphyrin, see survival at 0 μM porphyrin concentration).

[2] = tested on: Ceratitis capitata flies; assay: Photoinsecticidal action: fly survival after bait and visible light irradiation (artificial lamp); details: 8 μM in bait, survival 10 h after irradiation
Description: (§1) Porphyrins: • a) meso[tri(N-methyl-pyridyl), mono(N-dodecyl-pyridyl)]porphine (abbr.: C12) • b) meso[tri(N-methyl-pyridyl), mono(N-tetradecyl-pyridyl)]porphine (abbr.: C14) • c) meso[tri(N-methyl-pyridyl), mono(N-octadecyl-pyridyl)]porphine (abbr.: C18) Bait: Aqueous solution containing 10% sucrose and 1% autolysed yeast Flies: • a) Ceratitis capitata (fruit fly) age: 1 week; weight: 5-6 mg • b) Bactrocera oleae (olive fly) age: 10 days; weight: 4-4.5 mg • c) Stomoxis calcitrans (stable fly) age: 10 days; weight: 12 mg Irradiation: • a) High pressure halogen lamp, equipped with infrared and UV filters, emission 360-850 nm, operated at intensities in the 760-2,000 μE s^−1m^−2 range • b) Sunlight, mid June at Padua latitude, average intensity of […] μE s^−1m^−2 with minimum and maximum values of 950 and, respectively, 1,380 μE s^−1m^−2
The irradiations were performed for 1 h, then the flies were kept in dim light for monitoring the survival. Control flies were irradiated under identical conditions after feeding with a porphyrin-free bait.
The irradiations were performed for 1 h at a fluence-rate of 1220 μE s^−1m^−2. The survival was evaluated 10 h after the end of irradiation. […] The porphyrins are abbreviated as following: HP: haematoporphyrin; C1: meso-tetra(N-methyl-pyridyl)porphine.
The survival was evaluated 10 h after the end of irradiation.
An appropriate number of flies (50 flies per each experiment) was caged in 115×55×70 mm Plexiglas cages with several holes (ø=0.5 mm) and starved for 36 h. Then, depending on the protocol to be adopted for each specific experiment, the flies were fed with the bait (10% sucrose and 1% autolysed yeast in neutral aqueous solution), which was either porphyrin-free or added with a predetermined concentration of the porphyrin. These flies were then used in the various experimental sessions. […]

[3] = tested on: Ceratitis capitata flies; assay: Photoinsecticidal action: fly survival after bait and sunlight irradiation; details: 8 μM in bait, 12 h after feeding, survival 1 h after irradiation
Description: as §1
The survival was evaluated 1 h after the end of irradiation.
An appropriate number of flies (50 flies per each experiment) was caged in 115×55×70 mm Plexiglas cages with several holes (ø=0.5 mm) and starved for 36 h. Then, depending on the protocol to be adopted for each specific experiment, the flies were fed with the bait (10% sucrose and 1% autolysed yeast in neutral aqueous solution), which was either porphyrin-free or added with a predetermined concentration of the porphyrin. These flies were then used in the various experimental sessions.

[4] = fluence-rate 760 μE s^−1m^−2, irradiated 24 h after feeding (title)
[5] = fluence-rate 1220 μE s^−1m^−2, irradiated 24 h after feeding (title)
[6] = fluence-rate 1500 μE s^−1m^−2, irradiated 24 h after feeding (title)
[7] = fluence-rate 2000 μE s^−1m^−2, irradiated 24 h after feeding (title)
[8] = time interval feeding-irradiation 0 h, irradiation 1 h at 1220 μE s^−1m^−2
[9] = time interval feeding-irradiation 12 h, irradiation 1 h at 1220 μE s^−1m^−2
[10] = time interval feeding-irradiation 24 h, irradiation 1 h at 1220 μE s^−1m^−2
[11] = time interval feeding-irradiation 48 h, irradiation 1 h at 1220 μE s^−1m^−2

SMILES	mortality of the flies in the dark [1]	Survival (% of control untreated flies) ([1]; 3.00 μM in bait)	Survival (% of control untreated flies) ([1]; 8.10 μM in bait)	Survival (% of control untreated flies) [2, 4]	Survival (% of control untreated flies) [2, 5]	Survival (% of control untreated flies) [2, 6]	Survival (% of control untreated flies) [2, 7]	Survival (% of control untreated flies) [2, 8]	Survival (% of control untreated flies) [2, 9]	Survival (% of control untreated flies) [2, 10]	Survival (% of control untreated flies) [2, 11]	Survival (% of control untreated flies) ([3]; sunlight 15 min)	Survival (% of control untreated flies) ([3]; sunlight 30 min)	Survival (% of control untreated flies) ([3]; sunlight 45 min)	Survival (% of control untreated flies) ([3]; sunlight 60 min)
CC1=C(CCC(=O)O)c2cc3[nH]c(cc4nc(cc5[nH]c(cc1n2)c(C)c5C(C)O)C(C)=C4C(C)O)c(C)c3CCC(=O)O (stereo not drawn) [Hp, Haematoporphyrin, reference compound]	no mortality of the flies was observed	100 % of control untreated flies	100 % of control untreated flies	81 % of control untreated flies	20 % of control untreated flies	11 % of control untreated flies	8 % of control untreated flies	20 % of control untreated flies	37 % of control untreated flies	58 % of control untreated flies	61 % of control untreated flies	75 % of control untreated flies	70 % of control untreated flies	64 % of control untreated flies	40 % of control untreated flies
C[n+]1ccc(-c2c3nc(c(-c4cc[n+](C)cc4)c4ccc([nH]4)c(-c4cc[n+](C)cc4)c4nc(c(-c5cc[n+](C)cc5)c5ccc2[nH]5)C=C4)C=C3)cc1 [C1, Meso-tetra (N-methyl-pyridyl) porphine, reference compound]	no mortality of the flies was observed	100 % of control untreated flies	100 % of control untreated flies	100 % of control untreated flies	90 % of control untreated flies	81 % of control untreated flies	73 % of control untreated flies	90 % of control untreated flies	94 % of control untreated flies	100 % of control untreated flies	97 % of control untreated flies	100 % of control untreated flies	100 % of control untreated flies	93 % of control untreated flies	97 % of control untreated flies
